From PMC6487263, “Kinetic and structural analysis of human ALDH9A1” (Bioscience Reports, 2019)

Assays:
[1] = target: T1, human ALDH9A1 (HsALDH9A1) (Homo sapiens, UniProt P49189); experiment: nanoDSF (Tycho NT.[…]); format: binding; settings: 150 mM Tris/HCl pH 7.5, apoenzyme reference 69.5 °C
T1 construct: full-length 494-residue protein, His-tag kept (pCDFDuet, BamHI/XhoI), recombinant from E. coli; silent polymorphism at Ile110 codon

[2] = target: T1, human ALDH9A1 (HsALDH9A1); experiment: microscale thermophoresis, RED-tris-NTA labelled His-tagged enzyme; format: binding
Text: microscale thermophoresis, RED-tris-NTA labelled His-tagged enzyme on human ALDH9A1 (HsALDH9A1)

[3] = target: T1, human ALDH9A1 (HsALDH9A1); experiment: NADH formation at […] nm, partial substrate inhibition fit; format: biochemical; settings: substrate inhibition constant; 1 mM NAD+, 150 mM sodium pyrophosphate pH 7.5, 30 °C
[4] = target: T1, human ALDH9A1 (HsALDH9A1); experiment: microscale thermophoresis; format: binding

T1 sequence (P49189 whole entry): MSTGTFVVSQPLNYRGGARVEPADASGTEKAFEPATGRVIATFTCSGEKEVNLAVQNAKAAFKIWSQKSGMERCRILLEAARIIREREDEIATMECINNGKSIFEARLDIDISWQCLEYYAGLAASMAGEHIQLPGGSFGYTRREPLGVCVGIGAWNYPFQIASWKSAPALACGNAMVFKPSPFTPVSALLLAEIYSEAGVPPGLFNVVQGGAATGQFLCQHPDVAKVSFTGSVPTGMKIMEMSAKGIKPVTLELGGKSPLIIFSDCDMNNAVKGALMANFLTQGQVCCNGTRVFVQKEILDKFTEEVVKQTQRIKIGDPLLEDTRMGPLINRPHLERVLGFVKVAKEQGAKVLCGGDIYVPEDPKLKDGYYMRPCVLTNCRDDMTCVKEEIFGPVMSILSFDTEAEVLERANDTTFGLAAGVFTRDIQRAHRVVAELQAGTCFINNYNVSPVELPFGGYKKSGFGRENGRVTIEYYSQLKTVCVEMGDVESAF

Row | Compound | Kd [2] [µM] | Ki [3] [µM] | other results
1 | C[N+](C)(C)CCCC=O [TMABAL, 4-(trimethylamino)butyraldehyde] | 6 ± 3 | 2200 ± 590 | Tm ([1]; 5 mM ligand): 63 °C
2 | N=C(N)NCCCC=O [GBAL] |  | 7230 ± 1650 | 
3 | C[N+](C)(C)CCCC(=O)[O-] [TMABA] |  |  | Tm ([1]; 10 mM ligand): 66 °C; Kd [4]: 2600 ± 200 µM
4 | C[N+](C)(C)CC=O [BAL] | 171 ± 35 |  | 
5 | NC(=O)c1ccc[n+]([C@@H]2O[C@H](COP(=O)([O-])OP(=O)(O)OC[C@H]3O[C@@H](n4cnc5c(N)ncnc54)[C@H](O)[C@@H]3O)[C@@H](O)[C@H]2O)c1 [NAD^+] | 16 ± 3 |  | Tm ([1]; 5 mM ligand): 69.5 °C
6 | CN(C)CCCC=O [DMABAL] |  | 10880 ± 1350 | 
7 | C[N+](C)(C)CCC=O [TMAPAL, 3-(trimethylamino)propionaldehyde] |  | 470 ± 45 | 
